Reference: patent US6417141B1, “Substituted aminouracils” (Bayer Aktiengesellschaft, priority 1995, dated 2002)

Key:
Type in all cases: in vivo
Conditions in all cases: greenhouse, 125 g/ha a.i., rated after three weeks vs untreated control
Abutilon [1] = experiment: Pre-emergence test
Procedure: (§1) Solvent: 5 parts by weight of acetone
(§2) Emulsifier: 1 part by weight of alkylaryl polyglycol ether
(§3) To produce a suitable preparation of active compound, 1 part by weight of active compound is mixed with a stated amount of solvent, the stated amount of the emulsifier is added and the concentrate is diluted with water to the desired concentration.
(§4) Seeds of the test plants are sown in normal soil. After about 24 hours, the soil is watered with the preparation of the active compound. It is advantageous to keep the amount of water per unit area constant. The concentration of the active compound in the preparation is immaterial, only the amount of active compound applied per unit area matters.
(§5) After three weeks, the degree of damage to the plants is rated in % damage by comparison with the development of the untreated control.
(§6) 0%=no effect (like untreated control)

Alopecurus [2] = experiment: Pre-emergence test
Procedure: as §1, §2, §3, §4, §5, §6

Amaranthus [3] = experiment: Pre-emergence test
Procedure: as §1, §2, §3, §4, §5, §6

Avena [4] = experiment: Pre-emergence test
Procedure: as §1, §2, §3, §4, §5, §6

Cyperus [5] = experiment: Pre-emergence test
Procedure: as §1, §2, §3, §4, §5, §6

Galium [6] = experiment: Pre-emergence test
Procedure: as §1, §2, §3, §4, §5, §6

Setaria [7] = experiment: Pre-emergence test
Procedure: as §1, §2, §3, §4, §5, §6

Sinapis [8] = experiment: Pre-emergence test
Procedure: as §1, §2, §3, §4, §5, §6

Xanthium [9] = experiment: Pre-emergence test
Procedure: as §1, §2, §3, §4, §5, §6

Abutilon [10] = experiment: Post-emergence test
Procedure: as §1, §2
(§7) To produce a suitable preparation of active compound, 1 part by weight of active compound is mixed with the stated amount of solvent, the stated amount of emulsifier is added and the concentrate is diluted with water to the desired concentration.
(§8) Test plants which have a height of 5-15 cm are sprayed with the preparation of the active compound in such a way as to apply the particular amounts of active compound desired per unit area.
as §5, §6

Alopecurus [11] = experiment: Post-emergence test
Procedure: as §1, §2, §7, §8, §5, §6

Amaranthus [12] = experiment: Post-emergence test
Procedure: as §1, §2, §7, §8, §5, §6

Avena [13] = experiment: Post-emergence test
Procedure: as §1, §2, §7, §8, §5, §6

Cyperus [14] = experiment: Post-emergence test
Procedure: as §1, §2, §7, §8, §5, §6

Galium [15] = experiment: Post-emergence test
Procedure: as §1, §2, §7, §8, §5, §6

Setaria [16] = experiment: Post-emergence test
Procedure: as §1, §2, §7, §8, §5, §6

Sinapis [17] = experiment: Post-emergence test
Procedure: as §1, §2, §7, §8, §5, §6

Xanthium [18] = experiment: Post-emergence test
Procedure: as §1, §2, §7, §8, §5, §6

COc1cc(-n2c(=O)cc(C(F)(F)F)n(N)c2=O)c(F)cc1C#N [Example 1, 1-(4-cyano-2-fluoro-5-methoxy-phenyl)-3,6-dihydro-2,6-dioxo-3-amino-4-trifluoromethyl-1(2H)-pyrimidine]
100%: degree of damage to the plants, Abutilon (Abutilon [1]) | degree of damage to the plants, Alopecurus (Alopecurus [2]) | degree of damage to the plants, Amaranthus (Amaranthus [3]) | degree of damage to the plants, Avena (Avena [4]) | degree of damage to the plants, Cyperus (Cyperus [5]) | degree of damage to the plants, Galium (Galium [6]) | degree of damage to the plants, Setaria (Setaria [7]) | degree of damage to the plants, Sinapis (Sinapis [8]) | degree of damage to the plants, Xanthium (Xanthium [9]) | degree of damage to the plants, Abutilon (Abutilon [10]) | degree of damage to the plants, Alopecurus (Alopecurus [11]) | degree of damage to the plants, Amaranthus (Amaranthus [12]) | degree of damage to the plants, Avena (Avena [13]) | degree of damage to the plants, Cyperus (Cyperus [14]) | degree of damage to the plants, Galium (Galium [15]) | degree of damage to the plants, Setaria (Setaria [16]) | degree of damage to the plants, Sinapis (Sinapis [17]) | degree of damage to the plants, Xanthium (Xanthium [18])
